Test results reported in patent US8383139B2 (Bayer CropScience AG, priority 2008, dated 2013).

Key:
[1] = log P by HPLC on reversed-phase columns (C 18), EEC Directive 79/831 Annex V.A8; assay type: physicochemical; details: reversed-phase C18 HPLC column, pH 2.3, [a] HPLC, acid region pH 2.3, 0.1% aqueous phosphoric acid and acetonitrile; read-out: log p
Alternaria solani = assay: Alternaria test (tomato)/protective; assay type: in vivo; details: 72 h, 100 ppm active substance, protective, evaluation 3 days after inoculation, read-out: degree of effectiveness
Description: (§1) • Solvents: 24.5 parts by weight of acetone • 24.5 parts by weight of dimethylacetamide • Emulsifier: 1 part by weight of alkylaryl polyglycol ether (polyoxyethylene (16) tristearylphenyl ether)
(§2) To prepare a suitable active substance composition, 1 part by weight of active substance is mixed with the given amounts of solvents and emulsifier and the concentrate is diluted to the desired concentration using water.
For the testing of protective effectiveness, young plants are sprayed with the active substance composition in the application rate given. After the spray coating has been dried on, the plants are inoculated with an aqueous suspension of spores of Alternaria solani. The plants are then placed in an incubation chamber at approximately 20° C. and 100% relative humidity.
Evaluation is carried out 3 days after the inoculation. In this connection, 0% means a degree of effectiveness corresponding to that of the control, while a degree of effectiveness of 100% means that no infestation is observed.

Uromyces appendiculatus = assay: Uromyces test (beans)/protective; assay type: in vivo; details: 240 h, 100 ppm active substance, protective, evaluation 10 days after inoculation, read-out: degree of effectiveness
Description: as §1, §2
For the testing of protective effectiveness, young plants are sprayed with the active substance composition in the application rate given. After the spray coating has been dried on, the plants are inoculated with an aqueous suspension of the spores of the bean rust pathogen Uromyces appendiculatus and then remain in an incubation chamber at approximately 20° C. and 100% relative humidity for 1 day.
The plants are then placed in a greenhouse at approximately 21° C. and a relative humidity of approximately 90%.
Evaluation is carried out 10 days after the inoculation. In this connection, 0% means a degree of effectiveness corresponding to that of the control, while a degree of effectiveness of 100% means that no infestation is observed.

Sphaerotheca fuliginea = assay: Sphaerotheca test (cucumber)/protective; assay type: in vivo; details: Podosphaera fuliginea, 168 h, 500 ppm active substance, protective, evaluation 7 days after inoculation, read-out: degree of effectiveness
Description: • Solvents: 49 parts by weight of N,N-dimethylformamide • Emulsifier: 1 part by weight of alkylaryl polyglycol ether (polyoxyethylene (16) tristearylphenyl ether) To prepare a suitable active substance composition, 1 part by weight of active substance is mixed with the given amounts of solvents and emulsifier and the concentrate is diluted to the desired concentration using water. For the testing of protective effectiveness, young cucumber plants are sprayed with the active substance composition in the application rate given. One day after the treatment, the plants are inoculated with a suspension of spores of Sphaerotheca fuliginea. Subsequently, the plants are placed in a greenhouse at 70% relative humidity and at a temperature of 23° C. Evaluation is carried out 7 days after the inoculation. In this connection, 0% means a degree of effectiveness corresponding to that of the control, while a degree of effectiveness of 100% means that no infestation is observed.

Puccinia triticina = Puccinia triticina test (wheat)/protective; assay type: in vivo; details: 192 h, 500 ppm active substance, protective, evaluation 8 days after inoculation, read-out: degree of effectiveness
Description: • Solvent: 50 parts by weight of N,N-dimethylacetamide • Emulsifier: 1 part by weight of alkylaryl polyglycol ether (polyoxyethylene (16) tristearylphenyl ether) To prepare a suitable active substance composition, 1 part by weight of active substance is mixed with the given amounts of solvent and emulsifier and the concentrate is diluted to the desired concentration using water. For the testing of protective effectiveness, young plants are sprayed with the active substance composition in the application rate given. After the spray coating has been dried on, the plants are sprayed with spores with a suspension of spores of Puccinia triticina. The plants remain in an incubation chamber at 20° C. and 100% relative humidity for 48 hours. The plants are placed in a greenhouse at a temperature of approximately 20° C. and a relative humidity of approximately 80%. Evaluation is carried out 8 days after the inoculation. In this connection, 0% means a degree of effectiveness corresponding to that of the control, while a degree of effectiveness of 100% means that no infestation is observed.

Septoria tritici = Septoria tritici test (wheat)/protective; assay type: in vivo; details: Zymoseptoria tritici, 504 h, 500 ppm active substance, protective, evaluation 21 days after inoculation, read-out: degree of effectiveness
Description: • Solvent: 50 parts by weight of N,N-dimethylacetamide • Emulsifier: 1 part by weight of alkylaryl polyglycol ether (polyoxyethylene (16) tristearylphenyl ether) To prepare a suitable active substance composition, 1 part by weight of active substance is mixed with the given amounts of solvent and emulsifier and the concentrate is diluted to the desired concentration using water. For the testing of protective effectiveness, young plants are sprayed with the active substance composition at the application rate given. After the spray coating has dried on, the plants are sprayed with a suspension of spores of Septoria tritici. The plants remain in an incubation chamber at 20° C. and 100% relative humidity for 48 hours. The plants are afterwards placed under a transparent hood at 15° C. and 100% relative humidity for a further 60 hours. The plants are placed in a greenhouse at a temperature of approximately 15° C. and a relative humidity of 80%. Evaluation is carried out 21 days after the inoculation. In this connection, 0% means a degree of effectiveness corresponding to that of the control, while a degree of effectiveness of 100% means that no infestation is observed.

| Compound | chromatographic logP [1] | pest or weed control at 100 ppm (Alternaria solani) [%] | pest or weed control at 100 ppm (Uromyces appendiculatus) [%] | pest or weed control at 500 ppm (Sphaerotheca fuliginea) [%] | pest or weed control at 500 ppm (Puccinia triticina) [%] | pest or weed control at 500 ppm (Septoria tritici) [%] |
| --- | --- | --- | --- | --- | --- | --- |
| CCC(c1ccccc1)c1nsc(Oc2cc(C)c(N=CN3CCCCC3)cc2C)n1 (stereo not drawn) [Example 7, 2,5-dimethyl-4-{[3-(1-phenylpropyl)-1,2,4-thiadiazol-5-yl]oxy}-N-(piperidin-1-ylmethylidene)aniline] | 2.21 | ≥ 70 | ≥ 70 | ≥ 70 | ≥ 70 | ≥ 70 |
| Cc1cc(Oc2nc(C(C)c3ccccc3)ns2)c(C)cc1N=CN1CCCCC1 (stereo not drawn) [Example 8, 2,5-dimethyl-4-{[3-(1-phenylethyl)-1,2,4-thiadiazol-5-yl]oxy}-N-(piperidin-1-ylmethylidene)aniline] | 1.95 | ≥ 70 | ≥ 70 | ≥ 70 | ≥ 70 | ≥ 70 |
| CCN(C)C=Nc1cc(C)c(Oc2nc(Cc3cccc(C(F)(F)F)c3)ns2)cc1C [Example 10, N′-[2,5-dimethyl-4-({3-[3-(trifluoromethyl)benzyl]-1,2,4-thiadiazol-5-yl}oxy)phenyl]-N-ethyl-N-methylimidoformamide] | 2.05 | ≥ 70 | ≥ 70 | ≥ 70 | ≥ 70 | ≥ 70 |
| Cc1cc(Oc2nc(Cc3cccc(C(F)(F)F)c3)ns2)c(C)cc1N=CN1CCCCC1 [Example 13, 2,5-dimethyl-N-(piperidin-1-ylmethylidene)-4-({3-[3-(trifluoromethyl)benzyl]-1,2,4-thiadiazol-5-yl}oxy)aniline] | 2.28 | ≥ 70 | ≥ 70 | ≥ 70 | ≥ 70 | ≥ 70 |
| Cc1cc(Oc2nc(Cc3ccccc3C(F)(F)F)ns2)c(C)cc1N=CN1CCCCC1 [Example 43, 2,5-dimethyl-N-(piperidin-1-ylmethylidene)-4-({3-[2-(trifluoromethyl)benzyl]-1,2,4-thiadiazol-5-yl}oxy)aniline] | 2.15 | ≥ 70 | ≥ 70 | ≥ 70 | ≥ 70 | – |
| Cc1cc(Oc2nc(Cc3ccc4c(c3)OCO4)ns2)c(C)cc1N=CN1CCCCC1 [Example 45, 4-{[3-(1,3-benzodioxol-5-ylmethyl)-1,2,4-thiadiazol-5-yl]oxy}-2,5-dimethyl-N-(piperidin-1-ylmethylidene)aniline] | 1.84 | ≥ 70 | – | ≥ 70 | ≥ 70 | ≥ 70 |
| CCN(C)C=Nc1cc(C)c(Oc2nc(Cc3ccc4c(c3)OCO4)ns2)cc1C [Example 46, N′-(4-{[3-(1,3-benzodioxol-5-ylmethyl)-1,2,4-thiadiazol-5-yl]oxy}-2,5-dimethylphenyl)-N-ethyl-N-methylimidoformamide] | 1.65 | ≥ 70 | – | ≥ 70 | ≥ 70 | ≥ 70 |

More lines, main results first:

| chromatographic logP [1] | Compound | pest or weed control at 100 ppm (Alternaria solani) [%] | pest or weed control at 100 ppm (Uromyces appendiculatus) [%] | pest or weed control at 500 ppm (Sphaerotheca fuliginea) [%] | pest or weed control at 500 ppm (Puccinia triticina) [%] | pest or weed control at 500 ppm (Septoria tritici) [%] |
| --- | --- | --- | --- | --- | --- | --- |
| 2.08 | CCC(c1ccccc1)c1nsc(Oc2cc(C)c(N=CN(C)CC)cc2C)n1 (stereo not drawn) [Example 6, N′-(2,5-dimethyl-4-{[3-(1-phenylpropyl)-1,2,4-thiadiazol-5-yl]oxy}phenyl)-N-ethyl-N-methylimidoformamide] | ≥ 70 | ≥ 70 | ≥ 70 | ≥ 70 | ≥ 70 |
| 2.03 | Cc1cc(Oc2nc(Cc3ccc(Cl)cc3)ns2)c(C)cc1N=CN(C)C(C)C [Example 9, N′-(4-{[3-(4-chlorobenzyl)-1,2,4-thiadiazol-5-yl]oxy}-2,5-dimethylphenyl)-N-methyl-N-(propan-2-yl)imidoformamide] | ≥ 70 | ≥ 70 | ≥ 70 | ≥ 70 | ≥ 70 |
| 2.05 | CCN(C)C=Nc1cc(C)c(Oc2nc(Cc3c(Cl)cccc3Cl)ns2)cc1C [Example 15, N′-(4-{[3-(2,6-dichlorobenzyl)-1,2,4-thiadiazol-5-yl]oxy}-2,5-dimethylphenyl)-N-ethyl-N-methylimidoformamide] | ≥ 70 | ≥ 70 | ≥ 70 | ≥ 70 | ≥ 70 |
| 2.52 | Cc1cc(Oc2nc(C(C)c3ccc(Cl)cc3)ns2)c(Cl)cc1N=CN(C)C(C)C (stereo not drawn) [Example 22, N′-[5-chloro-4-({3-[1-(4-chlorophenyl)ethyl]-1,2,4-thiadiazol-5-yl}oxy)-2-methylphenyl]-N-methyl-N-(propan-2-yl)imidoformamide] | ≥ 70 | ≥ 70 | – | ≥ 70 | – |
| 2.71 | Cc1cc(Oc2nc(C(C)(C)c3ccc(Cl)cc3)ns2)c(C)cc1N=CN(C)C(C)C [Example 27, N′-[4-({3-[2-(4-chlorophenyl)propan-2-yl]-1,2,4-thiadiazol-5-yl}oxy)-2,5-dimethylphenyl]-N-methyl-N-(propan-2-yl)imidoformamide] | ≥ 70 | ≥ 70 | ≥ 70 | – | – |
| 2.57 | Cc1cc(Oc2nc(C3(c4ccc(Cl)cc4)CC3)ns2)c(C)cc1N=CN(C)C(C)C [Example 39, N′-[4-({3-[1-(4-chlorophenyl)cyclopropyl]-1,2,4-thiadiazol-5-yl}oxy)-2,5-dimethylphenyl]-N-methyl-N-(propan-2-yl)imidoformamide] | ≥ 70 | – | ≥ 70 | ≥ 70 | ≥ 70 |
| 2.76 | Cc1cc(Oc2nc(C3(c4ccc(Cl)cc4)CC3)ns2)c(Cl)cc1N=CN1CCCCC1 [Example 44, 5-chloro-4-({3-[1-(4-chlorophenyl)cyclopropyl]-1,2,4-thiadiazol-5-yl}oxy)-2-methyl-N-(piperidin-1-ylmethylidene)aniline] | ≥ 70 | – | ≥ 70 | ≥ 70 | ≥ 70 |
